Laboratory results taken from US20140100216A1, “STIMULATORS OF INCRETIN HORMONES SECRETION, METHOD FOR PREPARATION AND USE THEREOF” (priority 2011, published 2014).

Experiments:
[1] = biological target: T1, human TGR5 (hTGR5) receptors (Homo sapiens, UniProt Q8TDU6); test: Agonistic activity towards TGR5 receptors, increase of intracellular cAMP in HEK-293 cells; type: cell-based; settings: HEK-293 cells expressing hTGR5, read-out: Activity (agonistic activity, EC50 class)
T1 construct: expressed in transfected cells; host or cells: HEK-293
T1 sequence (Q8TDU6 1-330): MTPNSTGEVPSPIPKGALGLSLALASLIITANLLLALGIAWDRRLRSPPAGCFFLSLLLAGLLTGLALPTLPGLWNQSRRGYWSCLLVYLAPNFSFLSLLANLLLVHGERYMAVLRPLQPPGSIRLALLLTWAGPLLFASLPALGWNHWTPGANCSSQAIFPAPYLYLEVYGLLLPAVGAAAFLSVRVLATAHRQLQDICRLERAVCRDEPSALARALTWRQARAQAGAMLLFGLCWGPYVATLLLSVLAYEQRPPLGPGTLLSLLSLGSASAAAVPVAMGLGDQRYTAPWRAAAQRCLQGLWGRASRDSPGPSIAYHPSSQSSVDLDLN
Protocol: Screening of compounds of the general formula 1 was carried out in experiments on cells of HEK-293 line, in which human TGR5 (hTGR5) receptors were expressed. Agonistic activity of compounds was estimated by increasing of intracellular cAMP concentration.

[2] = tested on: diabesity mice of db/db line; test: Influence of rectal administration of bile acid GDC on blood glucose level; type: in vivo; settings: male db/db mice
Protocol: The influence of rectal administration of glycodeoxycholic acid (GDC) on glucose level in blood was studied at diabesity mice of db/db line. Glucose level at male db/db mice (39.5 g) was measured 24 hs before and at the moment of rectal administration, and then in 1, 2, 3, 4, 5, 6, and 24 hs afterwards. […] The gel was prepared on the base of methyl cellulose water solution (1%) and Tween-80 (2%). GDC BA administration in both doses effectively and statistically valid reduced glucose concentration in plasma of diabesity mice of db/db line (on 24%—at 50 mmol and on 20% at 5 mmol).

[3] = tested on: diabesity mice of db/db line; test: Influence of rectal BA administration on weight change at diabesity; type: in vivo; settings: GDC 5 and 50 mmol gel rectally + Sitagliptin 30 mg/kg peroral, weighed 2 days after administration
Protocol: Influence of rectal administration of glycodeoxycholic acid (GDC) on weight change of mice of db/db line at diabesity was investigated. […] The gel was prepared on the base of methyl cellulose water solution (1%) and Tween-80 (2%). The animals were weighted 2 days before the experiment, at the moment of administration and 2 days after administration of compositions.

Row | SMILES | EC50 [1] [µM] | further results
1 | CC(C)(C)NC(=O)C1c2cc(F)ccc2OCCN1Cc1ccccc1-c1ccncc1 (stereo not drawn) [Compound 18, 4-[2-(pyridin-4-yl)benzyl]-7-fluoro-2,3,4,5-tetrahydrobenzo[f][1,4]oxazepine-5-carboxylic acid tert-butylamide] | 1 to 10 | 
2 | CC(C)(C)NC(=O)C1c2cc(F)ccc2OCCN1Cc1ccccc1-c1ccc(F)cc1 (stereo not drawn) [Compound 50, 4-[2-(4-fluorophenyl)benzyl]-7-fluoro-2,3,4,5-tetrahydrobenzo[f][1,4]oxazepine-5-carboxylic acid tert-butylamide] | < 1 | 
3 | CC(C)(C)NC(=O)C1c2ccccc2OCC(=O)N1Cc1ccccc1-c1ccncc1 (stereo not drawn) [Compound 90, 4-[2-(pyridin-4-yl)benzyl]-3-oxo-2,3,4,5-tetrahydrobenzo[f][1,4]oxazepine-5-carboxylic acid tert-butylamide] | > 10 | 
4 | CC(CCC(=O)NCC(=O)O)C1CCC2C3CCC4CC(O)CCC4(C)C3CC(O)C12C (stereo not drawn) [GDC, glycodeoxycholic acid] |  | reduction of glucose concentration in plasma ([2]; GDC 5 mmol gel rectally + Sitagliptin 30 mg/kg perorally 15 min before): 20%; reduction of glucose concentration in plasma ([2]; GDC 50 mmol gel rectally + Sitagliptin 30 mg/kg perorally 15 min before): 24%; weight change of animals [3]: effectively and statistically-valid reduced weights of experimental animals
5 | N[C@@H](CC(=O)N1CCn2c(nnc2C(F)(F)F)C1)Cc1cc(F)c(F)cc1F [Sitagliptin, reference compound] |  | lowering of glucose level in blood plasma ([2]; Sitagliptin alone (vehicle gel + Sitagliptin 30 mg/kg)): 5-10%

Further lines, with some results ahead:

Row | EC50 [1] [µM] | SMILES | further results
6 | > 10 | O=C(NC1CCCC1)C1c2cc(C(F)(F)F)ccc2OCCN1Cc1cccc(-c2ccccc2)c1 (stereo not drawn) [Compound 14, 4-(3-pheylbenzyl)-7-trifluoromethyl-2,3,4,5-tetrahydrobenzo[f][1,4]oxazepine-5-carboxylic acid cyclopentylamide] | 
7 | < 1 | O=C(NC1CCCCC1)C1c2cc(C(F)(F)F)ccc2OCCN1Cc1cccc(-c2ccccc2)c1 (stereo not drawn) [Compound 15, 4-(3-phenylbenzyl)-7-trifluoromethyl-2,3,4,5-tetrahydrobenzo[f][1,4]oxazepine-5-carboxylic acid cyclohexylamide] | 
8 | > 10 | O=C(NC1CCCC1)C1c2cc(C(F)(F)F)ccc2OCC(=O)N1Cc1cccc(-c2ccccc2)c1 (stereo not drawn) [Compound 81, 4-(3-phenylbenzyl)-3-oxo-7-trifluoromethyl-2,3,4,5-tetrahydrobenzo[f][1,4]oxazepine-5-carboxylic acid cyclopentylamide] | 
9 | 1 to 10 | Cc1ccc(-c2ccccc2CN2C(=O)COc3ccccc3C2C(=O)NC(C)(C)C)cc1 (stereo not drawn) [Compound 96, 4-[2-(4-methylphenyl)benzyl]-3-oxo-2,3,4,5-tetrahydrobenzo[f][1,4]oxazepine-5-carboxylic acid tert-butylamide] | 
10 | > 10 | Cc1cccc(-c2ccccc2CN2C(=O)COc3ccccc3C2C(=O)NC(C)(C)C)c1 (stereo not drawn) [Compound 97, 4-[2-(3-methylphenyl)benzyl]-3-oxo-2,3,4,5-tetrahydrobenzo[f][1,4]oxazepine-5-carboxylic acid tert-butylamide] | 
